Results as given in patent US7459281B2, “Docetaxel immunoassay” (Saladax Biomedical Inc., priority 2005, dated 2008).

Assays:
[1] = tested on: docetaxel antibody (antiserum produced in Example 11 with C7 substituted docetaxel acid derivative immunogen); assay: Indirect competitive microtiter plate ELISA, IC50 and cross-reactivity, polyclonal antibodies to C7 substituted docetaxel acid derivative conjugate; format: binding, mouse (BALB/c); conditions: antibody of Example 11, immunogen of Example 9a
Procedure: Ten Female BALB/c mice were immunized i.p. with 100 μg/mouse of docetaxel-immunogen: either docetaxel-BTG as prepared in Example 9a or docetaxel-KLH immunogen as prepared in Example 9b emulsified in Complete Freund's Adjuvant. After the initial injection mice were boosted once after four weeks with 100 μg/mouse of the same immunogen emulsified in Incomplete Freund's Adjuvant. Ten days after the boosts test bleeds from each mouse were obtained by orbital bleed. The anti-serum from the last test bleeds containing docetaxel antibodies from each of the mice were evaluated by the procedures in Examples 14a and 16 to determine their reactivity to docetaxel and their cross reactivity to 10-O-Deacytlbaccatin III and, paclitaxel [Taxol].
Antibodies were screened by Enzyme-Linked Immunosorbent Assay (ELISA) method. This method for screening docetaxel antibodies (produced in Examples 10 and 11) was performed with the microtiter plates that were sensitized with docetaxel-BSA as described in Examples 12 and 13. The antibody screening assay was performed by diluting the antisera containing docetaxel antibodies to 1:100, 1:1,000, 1:10,000 and 1:100,000 in phosphate buffered saline containing 0.1% BSA and 0.01% thimerosal. To each well of docetaxel-BSA sensitized wells (prepared in Examples 12 and 13) 100 μL of diluted antibody was added and incubated for 10 minutes at room temperature with shaking. During this incubation antibody binds to the docetaxel-conjugate in the well. The wells of the plates were washed three times with 0.02 M TRIS, 0.9% NaCl, 0.5% Tween-80 and 0.001% Thimerosal, pH 7.8 to remove any unbound antibody. […] Following the incubation for color development, 50 μL of stop solution (1.5% sodium fluoride in di H2O) was added to each well to stop the color development and after 10 seconds of shaking the absorbance was determined at 650 nm with a 96-well plate reader. The amount of antibody in a well was proportional to the absorbance measured and was expressed as the dilution (titer) resulting in an absorbance of 1.5. Titers were determined by graphing log antibody dilution of the antibody measured (x-axis) vs. absorbance 650 nm (y-axis) and extrapolating the titer at an absorbance of 1.5. The titer determined the concentration (dilution) of antibody used in the indirect competitive Microtiter plate assay described in Examples 15 and 16.
(§1) Docetaxel concentrations were measured by an indirect competitive Enzyme-Linked Immunosorbent Assay (ELISA) method. […]

[2] = tested on: docetaxel monoclonal antibody (produced in Example 11); assay: Indirect competitive microtiter plate ELISA, IC50 and cross-reactivity, monoclonal antibodies to C7 substituted docetaxel acid derivative conjugate; format: binding, mouse (BALB/c); conditions: monoclonal antibody of Example 11, immunogen of Examples 9a & 9b; microtiter plate prepared as in Example 13
Procedure: For monoclonal antibodies starting […] before the fusion, the mice were injected i.p. with 400 μg (3 days before fusion), 200 μg (2 days before fusion), and 200 μg (1 day before fusion) on three successive days with either docetaxel-BTG or docetaxel-KLH (depending on the original immunogen) in PBS. According to the protocol of Coligan et al. spleen cells were isolated from the selected mice and fused with 2×10^7 cells of the myeloma fusion partner cell line (SP2/o) using 50% polyethylene glycol 1500 [Coligan, J. E. et al., eds., Current Protocols in Immunology, 2.5.1-2.5.8, (1992), Wiley & Sons, NY.] […]
Antibodies were screened by Enzyme-Linked Immunosorbent Assay (ELISA) method. […] Following the incubation for color development, 50 μL of stop solution (1.5% sodium fluoride in di H2O) was added to each well to stop the color development and after 10 seconds of shaking the absorbance was determined at 650 nm on a 96-well plate reader. The amount of antibody in a well was proportional to the absorbance measured. Samples with an absorbance of three times background or greater were designated as positive.
as §1

[3] = microtiter plate prepared as in Example 12
[4] = microtiter plate prepared as in Example 13

SMILES	percent cross-reactivity relative to docetaxel (ratio of IC50 for docetaxel to IC50 for analyte) [1, 3]	percent cross-reactivity relative to docetaxel (ratio of IC50 for docetaxel to IC50 for analyte) [1, 4]	percent cross-reactivity relative to docetaxel (ratio of IC50 for docetaxel to IC50 for analyte) [2]
CC(=O)O[C@@]12CO[C@@H]1CC(O)[C@@]1(C)C(=O)[C@H](O)C3=C(C)C(O)C[C@@](O)([C@@H](OC(=O)c4ccccc4)[C@H]21)C3(C)C (stereo partly drawn) [10-O-Deacytlbaccatin III, 10-O-Deacetylbaccatin III]	less than 0.02%	less than 0.01%	less than 1.0%
CC(=O)O[C@H]1C(=O)[C@@]2(C)[C@H]([C@H](OC(=O)c3ccccc3)[C@]3(O)C[C@H](OC(=O)[C@H](O)[C@@H](NC(=O)c4ccccc4)c4ccccc4)C(C)=C1C3(C)C)[C@]1(OC(C)=O)CO[C@@H]1C[C@@H]2O [Paclitaxel, paclitaxel]	less than 2%	less than 1%	less than 12%
